# Measurements: US20100016274A1, “BETA-LACTAM CANNABINOID RECEPTOR MODULATORS” (priority 2006, published 2010)
# Values joined by “and” are separate entries in the source; they are usually repeats but may differ in a detail not shown here. Equal values may be shown once. Read-outs that look alike come from different tables or passages of the source.
# Experiments:
# [1] = target: T1, cannabinoid receptor-1 (CB1), CB1R-containing cell membrane (Homo sapiens, UniProt P21554); experiment: biochemical; assay type: binding; settings: for Ki: displacement of 3H-CP55940 on CB1 receptors, from serial dilutions, non-linear regression
# T1 construct: purchased Applied Cell Sciences Inc, Rockville, Md
# Method: Method A using cell membranes. A compound is dissolved in DMSO and diluted to 1 M as a stock solution. […] A CB1R-containing cell membrane (Applied Cell Sciences Inc, Rockville, Md.) is diluted with binding buffer to a protein concentration of 28 μg/ml.
# (§1) The mixture is incubated for 90 min at room temperature, then filtered through Whatman glass fiber C disc filter in a vacuum manifold. The filter is washed three times each with 2.5 ml cold wash buffer (binding buffer with only 2.5 mg/ml BSA). The vacuum-dried filter is transferred to a scintillation vial, treated with 3 ml Eco-Scint, and the radioactivity is read on a Beckman LS6500 scintillation counter from which an IC50 value is calculated. The corresponding Ki values are obtained from serial dilutions according to this method, and calculated through the use of a non-linear regression program (Graphpad Inc, San Diego, Calif.).
# [2] = target: T2, hCB1 (membranes from hCB1 stably transfected CHO cells) (Homo sapiens, UniProt P21554); experiment: Cannabinoid Receptor-1 (CB1) Functional Activity Assay, Method A (35S-GTPγS, WIN 55212-2); assay type: biochemical; settings: for antagonism of WIN 55212-2 at CB1 receptors: FIGS. 3b-3d; for antagonism at CB1 receptors: FIGS. 5a, 6a, 7a, no WIN 55212-2 named in the legend; for antagonism of 3 μM WIN 55212-2 at CB1 receptors: FIGS. 5b, 6b, 7b
# T2 construct: purchased Perkin Elmer/NEN; host or cells: CHO cells, stably transfected
# Method: (§2) Membranes are diluted in ice-cold assay buffer (10 mM HEPES, 100 mM NaCl, 10 mM MgCl2, 2 μM GDP, 0.2% FAF-BSA, 10 μg/mL saponin) to 38 μg membranes/mL. Dilute ^35S-GTPγ5 to 1 nM in assay buffer. […] These solutions are incubated for 30 minutes at 30° C. The filters are washed 6 times with 10 mM sodium phosphate buffer (pH 7.4) at ambient temperature. The filters are counted using a liquid scintillation counter on the ^35S channel. Each compound/concentration is run in triplicate. A positive antagonism control may be run for AM251 at the same concentrations as test compounds under the same conditions.
# [3] = target: T3, hCB2 (membranes from hCB2 stably transfected CHO cells) (Homo sapiens, UniProt P34972); experiment: Cannabinoid Receptor-2 (CB2) Functional Activity Assay, Method A (35S-GTPγS); assay type: biochemical; settings: positive control, FIG. 9a
# T3 construct: purchased Perkin Elmer/NEN; host or cells: CHO cells, stably transfected
# Method: as §2, with “^35S-GTPγS” for “^35S-GTPγ5”, “is” for “may be”, “AM630” for “AM251”
# [4] = target: T4, cannabinoid receptor-2 (CB2), CB2R-containing cell membrane; hCB2 receptors (Homo sapiens, UniProt P34972); experiment: Cannabinoid Receptor-2 (CB2) Binding Assay, Method A using cell membranes (displacement of 3H-CP55940); settings: for IC50: displacement of 3H-CP55940 (1 nM), CB2R-containing cell membrane; for Ki: displacement of 3H-CP55940, CB2R-containing cell membrane, from serial dilutions
# T4 construct: purchased Applied Cell Sciences Inc, Rockville, Md
# Method: Method A using cell membranes. A compound is dissolved in DMSO and diluted to 1 M as a stock solution. […] A CB2R-containing cell membrane (Applied Cell Sciences Inc, Rockville, Md.) is diluted with binding buffer to a protein concentration of 28 μg/ml.
# as §1
# [5] = target: T4, cannabinoid receptor-2 (CB2), CB2R-containing cell membrane; hCB2 receptors; experiment: as above
# [6] = displacement of 3H-CP55940 (1 nM) on CB1 receptors, read-out: IC50
# [7] = FIG. 8, against pre-bound CP55940 on CHO cells expressing hCB2 receptors
# T4 sequence (P34972 whole entry): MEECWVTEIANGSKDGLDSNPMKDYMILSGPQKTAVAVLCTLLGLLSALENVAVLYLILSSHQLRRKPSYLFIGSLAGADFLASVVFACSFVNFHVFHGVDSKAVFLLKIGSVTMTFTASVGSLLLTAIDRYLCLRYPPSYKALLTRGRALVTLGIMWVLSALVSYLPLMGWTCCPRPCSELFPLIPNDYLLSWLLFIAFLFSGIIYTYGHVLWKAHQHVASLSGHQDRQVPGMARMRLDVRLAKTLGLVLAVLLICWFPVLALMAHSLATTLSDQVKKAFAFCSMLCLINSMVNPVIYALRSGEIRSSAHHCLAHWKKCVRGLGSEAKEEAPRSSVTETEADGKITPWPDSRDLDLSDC
# T2 sequence (P21554 whole entry): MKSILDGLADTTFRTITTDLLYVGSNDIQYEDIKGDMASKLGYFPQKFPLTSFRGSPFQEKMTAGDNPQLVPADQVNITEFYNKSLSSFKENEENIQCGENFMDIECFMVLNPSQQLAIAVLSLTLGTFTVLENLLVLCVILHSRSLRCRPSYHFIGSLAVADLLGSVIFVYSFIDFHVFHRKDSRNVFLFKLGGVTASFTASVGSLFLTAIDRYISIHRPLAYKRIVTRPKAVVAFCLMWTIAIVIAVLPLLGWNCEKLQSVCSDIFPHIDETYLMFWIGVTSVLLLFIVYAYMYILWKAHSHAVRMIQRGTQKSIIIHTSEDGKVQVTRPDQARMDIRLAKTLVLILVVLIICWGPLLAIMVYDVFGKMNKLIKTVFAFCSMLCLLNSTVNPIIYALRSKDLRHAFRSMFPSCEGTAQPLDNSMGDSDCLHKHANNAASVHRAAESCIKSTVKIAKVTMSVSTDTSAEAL
# T1 sequence (P21554 whole entry, species assumed): as the sequence (P21554 whole entry) above
# T3 sequence (P34972 whole entry): as the sequence (P34972 whole entry) above
compound,measurement,setting,value
"CC(C)(C)C(=O)C(C(=O)OCc1ccccc1)N1C(=O)C(c2cccs2)C1C=Cc1ccccc1 (mixture of isomers) [Example 70C, Benzyl 2(RS)-tert-Butylcarbonyl-2-[3(S*)-2-thienyl)-4(R*)-(2-styryl)azetidin-2-on-1-yl]acetate]",IC50,[1]; [6],1350 nM and 1400 nM
same,Ki,[1],676 nM and 670 nM
same,antagonism of WIN 55212-2 at CB1 receptors,[2],antagonism
same,antagonism at CB1 receptors,[2],antagonism
same,antagonism of 3 μM WIN 55212-2 at CB1 receptors,[2],antagonism
"Cc1c(C(=O)NN2CCCCC2)nn(-c2ccc(Cl)cc2Cl)c1-c1ccc(I)cc1 [AM251, N-(piperidin-1-yl)-1-(2,4-dichlorophenyl)-5-(4-iodophenyl)-4-methyl-1H-pyrazole-3-carboxamide, reference compound]",antagonism of WIN 55212-2 at CB1 receptors,[2],antagonism
"CCCCCCC(C)(C)c1ccc(C2CC(O)CCC2CCCO)c(O)c1 (stereo not drawn) [CP55940, 5-(1,1-dimethylheptyl)-2-[5-hydroxy-2-(3-hydroxypropyl)-cyclohexyl]-phenol]",agonism of CB2 receptors,[3],agonism
"CC(C)(C)OC(=O)CCC(C(=O)N1CCN(CCc2ccccc2)CC1)N1C(=O)C(N2C(=O)OCC2c2ccccc2)C1C=Cc1ccccc1 [Example 19E, 2(S)-(tert-Butoxycarbonylethyl)-2-[3(S)-(4(S)-phenyloxazolidin-2-on-3-yl)-4(R)-(2-styryl)azetidin-2-on-1-yl]acetic acid N-[4-(2-phenylethyl)]piperazinamide]",IC50,[4],<10000 nM
"CC(C)(C)OC(=O)CC(C(=O)NCc1cccc(C(F)(F)F)c1)N1C(=O)C(N2C(=O)OCC2c2ccccc2)C1C=Cc1ccccc1 [Example 19F, 2(R)-(tert-Butoxycarbonylmethyl)-2-[3(S)-(4(S)-phenyloxazolidin-2-on-3-yl)-4(R)-(2-styryl)azetidin-2-on-1-yl]acetic acid N-(3-trifluoromethylbenzyl)amide]",IC50,[4],<1000 nM
"CC(C)(C)OC(=O)CCC(C(=O)NCc1cccc(C(F)(F)F)c1)N1C(=O)C(N2C(=O)OCC2c2ccccc2)C1C=Cc1ccccc1 [Example 19H, 2(R)-(tert-Butoxycarbonylethyl)-2-[3 (S)-(4(S)-phenyloxazolidin-2-on-3-yl)-4(R)-(2-styryl)azetidin-2-on-1-yl]acetic acid N-(3-trifluoromethylbenzyl)amide]",IC50,[4],<1000 nM
O=C(CC(C(=O)N1CCN(CCc2ccccc2)CC1)N1C(=O)C(N2C(=O)OCC2c2ccccc2)C1C=Cc1ccccc1)NCc1cccc(C(F)(F)F)c1 (stereo not drawn) [Example 28A],IC50,[4],<10000 nM
O=C(NCc1cccc(C(F)(F)F)c1)C(CC(=O)N1CCC(N2CCCCC2)CC1)N1C(=O)C(N2C(=O)OCC2c2ccccc2)C1C=Cc1ccccc1 (stereo not drawn) [Example 31A],IC50,[4],379 nM
same,Ki,[4],253 nM
"O=C(NCc1cccc(C(F)(F)F)c1F)C(CC(=O)N1CCC(N2CCCCC2)CC1)N1C(=O)C(N2C(=O)OCC2c2ccccc2)C1C=Cc1ccccc1 [Example 33G, 2(R)-[[4-(Piperidinyl)piperidinyl]carbonylmethyl]-2-[3 (S)-(4(S)-phenyloxazolidin-2-on-3-yl)-4(R)-(2-styryl)azetidin-2-on-1-yl]acetic acid N-(2-fluoro-3-trifluoromethylbenzyl)carboxamide]",IC50,[5]; [7],273 nM
same,Ki,[5]; [7],182 nM
O=C(CC[C@@H](C(=O)N1CCN(C2CCCCC2)CC1)N1C(=O)[C@@H](N2C(=O)OC[C@@H]2c2ccccc2)[C@H]1/C=C/c1ccccc1)NCc1cc(F)cc(C(F)(F)F)c1 [Example 37S],IC50,[1]; [6],2300 nM
same,Ki,[1],1150 nM
same,antagonism of WIN 55212-2 at CB1 receptors,[2],antagonism
same,antagonism at CB1 receptors,[2],antagonism
same,antagonism of 3 μM WIN 55212-2 at CB1 receptors,[2],antagonism
O=C(CC[C@@H](C(=O)N1CCN(C2CCCCC2)CC1)N1C(=O)[C@@H](N2C(=O)OC[C@@H]2c2ccccc2)[C@H]1/C=C/c1ccccc1)NCc1ccc(Cl)c(C(F)(F)F)c1 [Example 37U],IC50,[1]; [6],2100 nM
same,Ki,[1],1070 nM
same,antagonism at CB1 receptors,[2],antagonism
same,antagonism of 3 μM WIN 55212-2 at CB1 receptors,[2],antagonism
O=C(NCc1ccc(Cl)c(C(F)(F)F)c1)[C@H](CCC(=O)N1CCN(C2CCCCC2)CC1)N1C(=O)[C@@H](N2C(=O)OC[C@@H]2c2ccccc2)[C@H]1/C=C/c1ccccc1 [Example 38J],IC50,"[5]; quoted for the single-dose negative control of the CB2 functional assay, assay of the IC50 not stated",> 10000 nM
O=C(NC1(c2cccc(F)c2)CCCC1)C(CCC(=O)N1CCN(C2CCCCC2)CC1)N1C(=O)C(N2C(=O)OCC2c2ccccc2)C1C=Cc1ccccc1 (stereo not drawn) [Example 42H],IC50,[4],~10000 nM
O=C(NC1(c2ccc(Cl)cc2)CC1)C(CCC(=O)N1CCN(C2CCCCC2)CC1)N1C(=O)C(N2C(=O)OCC2c2ccccc2)C1C=Cc1ccccc1 (stereo not drawn) [Example 42I],IC50,[4],~10000 nM
O=C(NC1(c2ccc(Cl)cc2)CCCC1)C(CCC(=O)N1CCN(C2CCCCC2)CC1)N1C(=O)C(N2C(=O)OCC2c2ccccc2)C1C=Cc1ccccc1 (stereo not drawn) [Example 42J],IC50,[4],~10000 nM
Cc1ccc(C2(NC(=O)C(CCC(=O)N3CCN(C4CCCCC4)CC3)N3C(=O)C(N4C(=O)OCC4c4ccccc4)C3C=Cc3ccccc3)CC2)cc1 (stereo not drawn) [Example 42K],IC50,[4],~10000 nM
Cc1ccc(C2(NC(=O)C(CCC(=O)N3CCN(C4CCCCC4)CC3)N3C(=O)C(N4C(=O)OCC4c4ccccc4)C3C=Cc3ccccc3)CCCC2)cc1 (stereo not drawn) [Example 42L],IC50,[4],~10000 nM
COc1ccc(C2(NC(=O)C(CCC(=O)N3CCN(C4CCCCC4)CC3)N3C(=O)C(N4C(=O)OCC4c4ccccc4)C3C=Cc3ccccc3)CC2)cc1 (stereo not drawn) [Example 42M],IC50,[4],~10000 nM
O=C(NCc1cccc(C(F)(F)F)c1)C(CCC(=O)N1CCN(CCc2ccccc2)CC1)N1C(=O)C(N2C(=O)OCC2c2ccccc2)C1C=Cc1ccccc1 (stereo not drawn) [Example 44B],IC50,[4],<1000 nM
CCN1CCN(C(=O)CCC(C(=O)NCc2cccc(C(F)(F)F)c2)N2C(=O)C(N3C(=O)OCC3c3ccccc3)C2C(Br)=Cc2ccccc2)CC1 (stereo not drawn) [Example 45U],IC50,[4],<10000 nM
O=C(C(CCCc1ccccc1)N1C(=O)C(N2C(=O)OCC2c2ccccc2)C1C=Cc1ccccc1)N1CCN(C2CCCCC2)CC1 (stereo not drawn) [Example 62E],IC50,[4],539 nM
same,Ki,[4],360 nM
"O=C(CN1C(=O)C(c2cccs2)C1C=Cc1ccccc1)OCc1ccccc1 (stereo not drawn) [Example 70B, Benzyl 2-[3(S*)-2-Thienyl)-4(R*)-(2-styryl)azetidin-2-on-1-yl]acetate]",IC50,"[1]; IC50, displacement of 3H-CP55940 (1 nM) on CB1 receptors",< 10000 nM
same,IC50,[4],~1000 nM
O=C(CC[C@@H](C(=O)N1CCN(CCc2cccs2)CC1)N1C(=O)[C@@H](N2C(=O)OC[C@@H]2c2ccccc2)[C@H]1/C=C/c1ccccc1)NCc1cc(F)cc(C(F)(F)F)c1 [Example 73G],IC50,[1]; [6],~10000 nM
C[C@@H](NC(=O)[C@H](CCC(=O)N1CCN(C2CCCCC2)CC1)N1C(=O)[C@@H](N2C(=O)OC[C@@H]2c2cccc(Cl)c2)[C@H]1/C=C/c1ccccc1)c1ccccc1 [Example 73H],IC50,[1]; [6],~10000 nM
